From patent publication US11643436B2, “Polypeptide compound, pharmaceutical composition, preparation method and application thereof” (CHENGDU SINTANOVO BIOTECHNOLOGY CO., LTD., priority 2019, dated 2023) come the findings set out here.

Usually EC50 stands for the concentration giving half of the maximal effect. One may read the Papp A→B as how fast a substance crosses the layer from the apical side. A low value points to poor permeation. A word on the ED50: it is the dose that gives a 50% effect, or the effect in half of the subjects. A higher ED50 goes with a need for a large dose. What is called IC50 is the concentration at which inhibition is half-maximal. Read a low IC50 as greater potency.

One data set has as its target human δ-opioid receptor (Homo sapiens (Human), UniProt P41143). The data set can be described thus: Forskolin-stimulated cAMP inhibition in HEK293 cells, δ-opioid receptor. The conditions noted are these: HEK293 cells highly expressing human δ-opioid receptor, read-out: DOR (EC50). In kind it is cell-based. On the procedure: (§1) Forskolin can stimulate the release of cAMP from HEK293 cells with high expression of human κ (or μ, or δ)-opioid receptors. […] The efficacy of the compounds of the invention as κ-opioid receptor agonists was determined by measuring the ability of the compounds of Examples to inhibit adenylate cyclase activity.
(§2) Cell culture: The HEK293 cell line highly expressing human κ (or μ, or δ)-opioid receptor were cultured in DMEM medium containing 10% FBS.
(§3) Stimulation: the test compound was 4-fold diluted in a gradient manner to obtain 10 concentrations, and 50 nl of each was transferred to a 384-well plate, and then 10 nl Forskolin was added; the cells were digested, re-suspended, and counted; and then 10 μl of cell suspension (5×10^5 cell/mL) was added, and the cells were mixed gently, and incubated at 23° C. for 60 minutes.
(§4) Detection: cAMP Assay Kit (Cisbio) was used, cAMPD2 and Anti-cAMP conjugate were added, and the resultant mixture was incubated for 1 h at room temperature. The plate was read using envision (Perkin Elmer) and EC50 was obtained by means of fitting with a four-parameter equation.

For the next data set, the target named is human μ-opioid receptor (Homo sapiens (Human), UniProt P35372). The data set can be described thus: Forskolin-stimulated cAMP inhibition in HEK293 cells, μ-opioid receptor. The data set is classed as cell-based. The conditions noted are these: HEK293 cells highly expressing human μ-opioid receptor, read-out: MOR (EC50). As for the experimental part: as §1, §2, §3, §4

The next data set concerns the target human κ-opioid receptor (Homo sapiens (Human), UniProt P41145). The data set can be described thus: Forskolin-stimulated cAMP inhibition in HEK293 cells, κ-opioid receptor agonism. The conditions noted are these: HEK293 cells highly expressing human κ-opioid receptor, read-out: KOR (EC50). The data set is classed as cell-based. On the procedure: as §1, §2, §3, §4

Data set [1] can be described thus: Caco-2 membrane permeability assay. In kind it is in vitro ADME. The conditions noted are these: human, Caco-2, A-B direction, pH 7.4, 37° C. On the procedure:
The Caco-2 cell line is a human colon adenocarcinoma cell line that differentiates in culture and is used to model the epithelial lining of the human small intestine. Compounds of the present invention were tested in a membrane permeability assay using Caco-2 cell membrane layer in a standard assay. The apparent permeability coefficient (Papp) can be determined in the apical-to-basolateral (A-B) direction across cell monolayers cultured on 96-well polycarbonate membrane filters. The compound was maintained at pH 7.4 on the […] at a concentration of 5 μM, and the test plate was gently shaken and incubated at 37° C. for 120 minutes. Samples were taken at time zero from the donor side and at the end of the incubation period from both the donor and acceptor sides. Samples were analyzed by HPLC-MS/MS. The Papp value (expressed as […]) was then calculated based on the appearance rate of compound on the recipient side. Papp can be calculated by the following equation: Papp=(VA×[drug]acceptor)/(Area×Time×[drug]initial, donor) wherein Papp is the apparent permeability; VA is the volume of the acceptor side, Area is the surface area of the membrane, [drug]initial, donor is the concentration on the donor side at time zero, [drug]acceptor is the concentration of the compounds on the recipient side at the end of the incubation period, Time is the total incubation time.
Background: Passage across Caco-2 layers is used to estimate intestinal permeability.

The next data set concerns ICR male mice. Put plainly: Acetic acid writhing test in mice. The data set is classed as in vivo. The conditions noted are these: IV administration 15 minutes before 0.6% acetic acid i.p.; writhes within 15 min. On the procedure:
The analgesic effect of the compound of the invention was evaluated by measuring the analgesic ED50 of the compounds of Examples in the acetic acid writhing test in mice.
The ICR male mice (18-25 g) were randomly separated into the drug group and the model group. 15 minutes after IV administration, 0.6% (v/v) acetic acid solution was intraperitoneally injected at 10 mL/kg. The number of writhes of the mice within 15 min was counted. The inhibition rate on the writhes was calculated based on the number of writhes. The ED50 of the compound to be tested was calculated based on inhibition rate according to a four-parameter equation.

In another data set the target is cytochrome P450 CYP 2D6 (Homo sapiens (Human), UniProt P10635). Put plainly: Inhibition of cytochrome P450 in human liver microsomes, CYP 2D6. In kind it is in vitro ADME. As for the experimental part: (§5) The human liver microsomes (0.253 mg/mL protein) containing cytochrome P450, test compounds (0.05-50 μM), CYPs substrates (10 μM […], 5 μM diclofenac, 30 μM mephenytoin, 5 μM dextromethorphan hydrobromide, 2 μM midazolam), 1.0 mM NADP were incubated at 37° C. for 10 minutes. Naflavone, sulfafenpyrazole, N-3-benzylnivan, quinidine, and ketoconazole were used as reference inhibitors.
Chain of cytochrome P450 CYP 2D6 (P10635 whole entry): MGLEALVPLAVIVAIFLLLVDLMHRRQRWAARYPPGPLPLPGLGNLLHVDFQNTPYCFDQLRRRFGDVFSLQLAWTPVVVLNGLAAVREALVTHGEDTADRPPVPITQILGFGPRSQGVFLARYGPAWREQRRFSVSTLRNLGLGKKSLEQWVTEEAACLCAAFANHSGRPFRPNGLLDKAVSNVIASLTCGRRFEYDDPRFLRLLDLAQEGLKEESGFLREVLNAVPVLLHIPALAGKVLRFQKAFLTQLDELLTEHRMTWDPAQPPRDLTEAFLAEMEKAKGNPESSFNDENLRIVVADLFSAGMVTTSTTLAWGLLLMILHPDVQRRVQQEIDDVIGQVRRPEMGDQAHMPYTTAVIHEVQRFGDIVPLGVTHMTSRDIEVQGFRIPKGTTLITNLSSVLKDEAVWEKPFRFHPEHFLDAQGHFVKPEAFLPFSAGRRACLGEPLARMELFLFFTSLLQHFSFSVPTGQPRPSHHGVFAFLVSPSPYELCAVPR
(Liver microsomes are vesicles of endoplasmic reticulum, rich in cytochrome P450 enzymes.)

The next data set has as its target cytochrome P450 CYP 3A4 (Homo sapiens (Human), UniProt P08684). Put plainly: Inhibition of cytochrome P450 in human liver microsomes, CYP 3A4. In kind it is in vitro ADME. On the procedure:
as §5

A further data set has as its target cytochrome P450 CYP 2C9 (Homo sapiens (Human), UniProt P11712). Put plainly: Inhibition of cytochrome P450 in human liver microsomes, CYP 2C9. In kind it is in vitro ADME. As for the experimental part:
as §5

For another data set, the target named is cytochrome P450 CYP 2C19 (Homo sapiens (Human), UniProt P33261). The data set can be described thus: Inhibition of cytochrome P450 in human liver microsomes, CYP 2C19. The data set is classed as in vitro ADME. On the procedure: as §5
Chain of cytochrome P450 CYP 2C19 (P33261 whole entry): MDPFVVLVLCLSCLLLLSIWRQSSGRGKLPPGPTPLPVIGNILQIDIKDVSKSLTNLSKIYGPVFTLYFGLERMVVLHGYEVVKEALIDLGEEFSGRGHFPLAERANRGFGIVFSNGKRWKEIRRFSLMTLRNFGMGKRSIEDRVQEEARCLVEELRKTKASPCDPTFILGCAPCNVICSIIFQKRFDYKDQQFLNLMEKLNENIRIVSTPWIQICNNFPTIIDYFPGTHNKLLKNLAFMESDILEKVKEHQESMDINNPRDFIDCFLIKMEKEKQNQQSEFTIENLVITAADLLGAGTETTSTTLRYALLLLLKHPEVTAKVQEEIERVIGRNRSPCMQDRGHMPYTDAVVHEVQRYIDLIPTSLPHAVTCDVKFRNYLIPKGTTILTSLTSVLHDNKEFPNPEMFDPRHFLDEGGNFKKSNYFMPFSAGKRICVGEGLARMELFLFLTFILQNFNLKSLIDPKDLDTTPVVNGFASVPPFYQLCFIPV
For a further data set, the target named is cytochrome P450 CYP 1A2 (Homo sapiens (Human), UniProt P05177). Put plainly: Inhibition of cytochrome P450 in human liver microsomes, CYP 1A2. The data set is classed as in vitro ADME. On the procedure:
as §5

Like-named read-outs stand apart in the source and are kept apart here. Bounds are passed on as bounds.

Chain of human δ-opioid receptor (P41143 whole entry, looked up): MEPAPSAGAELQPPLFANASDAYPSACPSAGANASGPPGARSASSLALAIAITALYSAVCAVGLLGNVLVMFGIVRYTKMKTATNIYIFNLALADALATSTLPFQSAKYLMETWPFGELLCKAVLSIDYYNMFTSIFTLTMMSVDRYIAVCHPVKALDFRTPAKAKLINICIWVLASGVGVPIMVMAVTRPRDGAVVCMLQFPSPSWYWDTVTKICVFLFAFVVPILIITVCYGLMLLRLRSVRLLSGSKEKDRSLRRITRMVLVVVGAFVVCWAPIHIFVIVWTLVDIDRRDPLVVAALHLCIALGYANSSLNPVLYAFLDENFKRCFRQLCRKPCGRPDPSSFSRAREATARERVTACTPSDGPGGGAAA
Chain of cytochrome P450 CYP 3A4 (P08684 whole entry): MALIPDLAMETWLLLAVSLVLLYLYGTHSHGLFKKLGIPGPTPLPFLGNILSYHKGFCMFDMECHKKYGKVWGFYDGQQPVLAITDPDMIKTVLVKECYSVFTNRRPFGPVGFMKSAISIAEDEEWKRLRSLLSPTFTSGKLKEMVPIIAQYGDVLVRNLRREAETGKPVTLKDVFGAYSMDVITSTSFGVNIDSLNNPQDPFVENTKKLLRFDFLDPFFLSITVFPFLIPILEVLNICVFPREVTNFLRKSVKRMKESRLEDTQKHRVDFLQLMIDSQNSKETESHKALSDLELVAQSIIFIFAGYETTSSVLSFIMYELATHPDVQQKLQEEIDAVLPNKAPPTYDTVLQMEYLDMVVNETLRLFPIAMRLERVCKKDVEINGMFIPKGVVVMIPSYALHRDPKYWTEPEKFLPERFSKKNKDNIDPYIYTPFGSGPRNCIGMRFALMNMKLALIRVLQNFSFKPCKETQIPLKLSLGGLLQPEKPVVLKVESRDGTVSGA
Chain of cytochrome P450 CYP 1A2 (P05177 whole entry): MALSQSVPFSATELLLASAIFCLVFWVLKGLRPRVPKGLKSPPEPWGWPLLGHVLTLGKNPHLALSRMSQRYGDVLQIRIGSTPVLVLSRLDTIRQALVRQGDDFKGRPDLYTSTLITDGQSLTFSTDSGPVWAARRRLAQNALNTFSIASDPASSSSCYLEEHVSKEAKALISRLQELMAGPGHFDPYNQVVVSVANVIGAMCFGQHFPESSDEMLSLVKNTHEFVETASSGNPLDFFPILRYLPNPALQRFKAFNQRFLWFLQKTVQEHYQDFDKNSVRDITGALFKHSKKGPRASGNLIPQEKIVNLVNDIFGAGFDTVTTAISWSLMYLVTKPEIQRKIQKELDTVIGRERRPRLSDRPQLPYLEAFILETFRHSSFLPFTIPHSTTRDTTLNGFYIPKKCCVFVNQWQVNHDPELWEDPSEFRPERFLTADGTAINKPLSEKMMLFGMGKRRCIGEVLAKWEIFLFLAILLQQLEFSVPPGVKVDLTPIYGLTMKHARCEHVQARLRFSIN
Chain of cytochrome P450 CYP 2C9 (P11712 whole entry): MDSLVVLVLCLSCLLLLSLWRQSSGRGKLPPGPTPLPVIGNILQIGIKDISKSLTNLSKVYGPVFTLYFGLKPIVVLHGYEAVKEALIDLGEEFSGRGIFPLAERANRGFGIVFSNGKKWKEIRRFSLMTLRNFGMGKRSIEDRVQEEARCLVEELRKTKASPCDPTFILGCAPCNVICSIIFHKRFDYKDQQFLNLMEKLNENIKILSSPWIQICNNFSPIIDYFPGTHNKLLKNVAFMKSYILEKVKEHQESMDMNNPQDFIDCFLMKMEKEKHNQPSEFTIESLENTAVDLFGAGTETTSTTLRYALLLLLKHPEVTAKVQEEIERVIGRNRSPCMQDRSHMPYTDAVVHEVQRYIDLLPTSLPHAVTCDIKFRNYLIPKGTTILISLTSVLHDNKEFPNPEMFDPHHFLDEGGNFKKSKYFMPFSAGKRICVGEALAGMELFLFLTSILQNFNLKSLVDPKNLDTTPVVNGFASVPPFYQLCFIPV

With `CC(C)C[C@@H](NC(=O)[C@@H](Cc1ccccc1)NC(=O)[C@H](N)Cc1ccccc1)C(=O)N[C@H](CCCCN)C(=O)N1CCC(B(O)O)CC1` [TM-1], the concentration for a half-maximal effect (EC50) was more than 10 µM at human δ-opioid receptor, more than 10 µM on human μ-opioid receptor and 0.0984 nM on human κ-opioid receptor.

In data set [1], `CC(C)C[C@@H](NC(=O)[C@@H](Cc1ccccc1)NC(=O)[C@H](N)Cc1ccccc1)C(=O)N[C@H](CCCCN)C(=O)N1CC[C@@H](B(O)O)C1` [TM-2A, (R)-1-(D-Phe-D-Phe-D-Leu-D-Lys)-3-pyrrolidineboronic acid] displayed an apparent permeability from apical to basolateral (Papp A→B) at 120 min, 5 μM of less than 0.05 ×10⁻⁶ cm/s. Besides, the ED50 in the data set on ICR male mice worked out at 0.679 µg/kg. For the same compound, the EC50 is more than 10 µM at human δ-opioid receptor, more than 10 µM on human μ-opioid receptor and 0.0331 nM at human κ-opioid receptor.

On to `CC(C)C[C@@H](NC(=O)[C@@H](Cc1ccccc1)NC(=O)[C@H](N)Cc1ccccc1)C(=O)N[C@H](CCCCN)C(=O)N1CC=C(B(O)O)C1` [TM-3], for which the Papp A→B at 120 min, 5 μM in data set [1] is less than 0.2 ×10⁻⁶ cm/s. Moreover, the EC50 on human δ-opioid receptor is more than 10 µM; on human μ-opioid receptor, more than 10 µM; at human κ-opioid receptor it was 0.0547 nM.

As for `CC(C)C[C@@H](NC(=O)[C@@H](Cc1ccccc1)NC(=O)[C@H](N)Cc1ccccc1)C(=O)N[C@H](CCCCN)C(=O)N1CCC=C(B(O)O)C1` [TM-5], the concentration for a half-maximal effect (EC50) on human δ-opioid receptor is more than 10 µM; on human μ-opioid receptor, more than 10 µM; on human κ-opioid receptor, 0.027 nM.

For `CC(C)C[C@@H](NC(=O)[C@@H](Cc1ccccc1)NC(=O)[C@H](N)Cc1ccccc1)C(=O)N[C@H](CCCCN)C(=O)N1CCC2(CC1)CC(B(O)O)C2` [TM-7], the EC50 is more than 10 µM at human δ-opioid receptor, more than 10 µM at human μ-opioid receptor and 0.0087 nM at human κ-opioid receptor.

The compound `CC(C)C[C@@H](NC(=O)[C@@H](Cc1ccccc1)NC(=O)[C@H](N)Cc1ccccc1)C(=O)N[C@H](CCCCN)C(=O)N1CCC(N)(B(O)O)CC1` [TM-8] had a Papp A→B at 120 min, 5 μM in data set [1] of less than 0.1 ×10⁻⁶ cm/s. In addition, the EC50 was more than 10 µM at human δ-opioid receptor, more than 10 µM on human μ-opioid receptor and 0.0846 nM at human κ-opioid receptor.

In data set [1], `CC(C)C[C@@H](NC(=O)[C@@H](Cc1ccccc1)NC(=O)[C@H](N)Cc1ccccc1)C(=O)N[C@H](CCCCN)C(=O)N1CCC[C@H]1B(O)O` [TM-9A, (R)-1-(D-Phe-D-Phe-D-Leu-D-Lys)-2-pyrrolidineboronic acid] yielded a Papp A→B at 120 min, 5 μM of less than 0.05 ×10⁻⁶ cm/s. In addition, the ED50 with ICR male mice amounted to 0.377 µg/kg. Besides, the EC50 on human δ-opioid receptor and on human μ-opioid receptor was more than 10 µM throughout.

As to `CC(C)C[C@@H](NC(=O)[C@@H](Cc1ccccc1)NC(=O)[C@H](N)Cc1ccccc1)C(=O)N[C@H](CCCCN)C(=O)N1CCCC[C@H]1B(O)O` [TM-13A, (R)-1-(D-Phe-D-Phe-D-Leu-D-Lys)-2-piperidine boronic acid], the EC50 was more than 10 µM on human δ-opioid receptor, more than 10 µM at human μ-opioid receptor and 0.0946 nM on human κ-opioid receptor.

For `COCCOCCNCCCC[C@@H](NC(=O)[C@@H](CC(C)C)NC(=O)[C@@H](Cc1ccccc1)NC(=O)[C@H](N)Cc1ccccc1)C(=O)N1CC[C@H](B(O)O)C1` [TM-22B, (S)-1-(N2-D-Phe-D-Phe-D-Leu-N6-(2-(2-methoxyethoxy)ethyl)-D-Lys)-3-pyrrolidineboronic acid], the Papp A→B at 120 min, 5 μM in data set [1] is less than 0.1 ×10⁻⁶ cm/s. Moreover, the IC50 at cytochrome P450 CYP 2D6, against cytochrome P450 CYP 3A4, on cytochrome P450 CYP 2C9, at cytochrome P450 CYP 2C19 and against cytochrome P450 CYP 1A2 was more than 50 µM each time. Further, the EC50 on human δ-opioid receptor is more than 10 µM; at human μ-opioid receptor, more than 10 µM; at human κ-opioid receptor, 0.0095 nM.

In the case of `CC(C)C[C@@H](NC(=O)[C@@H](Cc1ccccc1)NC(=O)[C@H](N)Cc1ccccc1)C(=O)N[C@H](CCCCN)C(=O)NCCB(O)O` [TM-26], in data set [1], the Papp A→B at 120 min, 5 μM was less than 0.1 ×10⁻⁶ cm/s. In addition, the 50% inhibitory concentration (IC50) at cytochrome P450 CYP 2D6 (microsomes), against cytochrome P450 CYP 3A4 (microsomes), against cytochrome P450 CYP 2C9 (microsomes), at cytochrome P450 CYP 2C19 (microsomes) and on cytochrome P450 CYP 1A2 (microsomes) was more than 50 µM in each case.
